The text below walks through data of patent US20220233566A1, “NOVEL CARBONATE COMPOUND HAVING PYRROLOPYRIMIDINE SKELETON OR PHARMACEUTICALLY ACCEPTABLE SALT THEREOF” (TAIHO PHARMACEUTICAL CO., LTD., priority 2019, published 2022).

Data set [1] can be described thus: Presence of prodrug in mouse and absorbency (plasma AUC after oral administration). The settings on record: male, Balb/cA, mouse, 7.6 umol/kg, mice, 7.6 μmol/kg, administered compound itself in plasma, read-out: AUC0-6hr. Format: in vivo. As for the experimental part: The dosage amounts of the compounds of Comparative Examples 1 to 5 and Examples 1 to 26 are those (mole/10 mL/kg) shown in Tables. Solutions for administration were prepared with an 0.5% aqueous solutions of HPMC so as to satisfy the dosage amounts.
Note that, the “amount of mole/10 mL/kg” means as follows: for example “10 mmol/10 mL/kg” means that 10 mmol of a test compound per body-weight (1 kg) of a mouse was dispersed or dissolved in a solution (10 mL) for administration. The same applies hereinafter.
The solutions for administration prepared above were orally administered to mice (Balb/cA, male) not fasted each by use of an oral administration sonde.
The mice were anesthetized with isoflurane 0.5, 1, 2, 4 and 6 hours after administration and blood was taken from the facial vein by use of a specific needle (animal lancet) and a heparin-coated hematocrit tube.
The blood sampled was immediately centrifuged (13000 rpm, 2 minutes, 4° C.) to prepare the plasma samples. After proteins were removed from the plasma samples, the concentrations of the test compound in the plasma samples were measured by LC/MS/MS.
The value of “area under the curve” (AUC) of drug concentration in blood versus time was calculated using analysis software such as Phoenix (registered trademark) WinNonlin (registered trademark).
In Table 3, “Comparative Example 1” and “Comparative Example 2” represent the “compound (Br form) of Comparative Example 1” and the “compound (I form) of Comparative Example 2”, respectively. In Table 4, “Comparative Example 6” represents the “compound (C1 form) of Comparative Example 6”.

A further data set relates to A172. Nature of the data set: Growth suppression activity in human tumor cell line. To be noted: A 172, 72 h; Human brain tumor, A172, 3 days. Type of data set: cell-based. The method, then: (§1) Human tumor cell lines different in type were suspended in mediums, seeded in individual wells of a multi-well plate and cultured. On the day after initiation of culture, serially diluted solutions of a compound were added. Culture was carried out for further 3 days. Cells were counted by a CellTiter-Glo (manufactured by Promega KK) in accordance with the protocol recommended by Promega KK. Cell viability was calculated in accordance with the equation shown below and the concentration (IC50 (μM)) of the compound at which 50% of cell growth is inhibited was obtained.
(§2) T: Intensity of light emitted from a well containing a compound
(§3) C: Intensity of light emitted from a well containing no compound

The subject of the next data set is CCRFCEM. The description is as above. Type of data set: cell-based. To be noted: CCRF-CEM, 72 h, Human hematopoietic organ tumor, 3 days. The method, then:
as §1, §2, §3

A further data set relates to CFPAC1. Described as above. Format: cell-based. To be noted: CFPAC-1, 72 h; Human pancreatic cancer, CFPAC1, 3 days. The method, then: as §1, §2, §3
The subject of the next data set is DLD1. Described as above. Type of data set: cell-based. The settings on record: DLD-1, 72 h; Human colorectal cancer, DLD1, 3 days. As for the experimental part: as §1, §2, §3
Another data set deals with H1703. Described as above. The settings on record: NCI-H1703, 72 h; Human lung cancer, H1703, 3 days. Type of data set: cell-based. As for the experimental part: as §1, §2, §3
The next data set concerns H69. Described as above. Type of data set: cell-based. To be noted: NCI-H69, 72 h; Human lung cancer, H69, 3 days. The method, then:
as §1, §2, §3

The subject of the next data set is HCT116. Described as above. Type of data set: cell-based. The settings on record: HCT-116, 72 h; Human colorectal cancer, HCT116, 3 days. As for the experimental part: as §1, §2, §3
A further data set relates to HT29. Described as above. Type of data set: cell-based. To be noted: HT-29, 72 h; Human colorectal cancer, HT29, 3 days. As for the experimental part: as §1, §2, §3
The test system of the next data set is LN229. The data set is described as above. Type of data set: cell-based. To be noted: LN-229, 72 h; Human brain tumor, LN229, 3 days. As for the experimental part:
as §1, §2, §3

For a further data set, the system named is MIAPACA2. The data set is described as above. To be noted: MIA PaCa-2, 72 h; Human pancreatic cancer, MIAPACA2, 3 days. Format: cell-based. The method, then:
as §1, §2, §3

The next data set relates to MKN45. The description is as above. Format: cell-based. To be noted: MKN-45, 72 h; Human stomach cancer, MKN45, 3 days. The method, then:
as §1, §2, §3

The next data set concerns MOLT4. Described as above. Format: cell-based. To be noted: MOLT-4, 72 h; Human hematopoietic organ tumor, MOLT4, 3 days. The method, then: as §1, §2, §3
A further data set deals with MV-4-11. Described as above. Type of data set: cell-based. The settings on record: MV4-11, 72 h; Human hematopoietic organ tumor, MV-4-11, 3 days. As for the experimental part:
as §1, §2, §3

A further data set has as its system A427. As to the kind of experiment: Growth suppression activity to human tumor cell line (Evaluation 3). Format: cell-based. To be noted: A-427, 72 h; Human lung cancer, A427, 3 days. As for the experimental part:
(§4) Human tumor cell lines different in type were suspended in mediums, seeded in individual wells of a multi-well plate and cultured. On the day after initiation of culture, serially diluted solutions of a compound were added. Culture was carried out for further 3 days. Cells were counted by a CellTiter-Glo (manufactured by Promega KK) in accordance with the protocol recommended by Promega KK. Cell viability was calculated in accordance with the equation shown below and the concentration (IC50 (nM)) of a compound at which 50% of cell growth is inhibited was obtained.
as §2, §3

For another data set, the system named is H520. Described as above. Type of data set: cell-based. The settings on record: NCI-H520, 72 h; Human lung cancer, H520, 3 days. The method, then: as §4, §2, §3
For data set [2], the system named is human brain tumor cell line (U-87 MG). As to the kind of experiment: Evaluation 1 of antitumor effect and toxicity in mouse (U-87 MG subcutaneous transplant). To be noted: oral every day; Comparative Example 2 12 mg/kg/day, Example 1 15.4 mg/kg/day. Format: in vivo, BALB/cA Jcl-nu/nu mice. The method, then:
The day of grouping mice was determined Day 0.
IRs of Comparative Example 2-compound administration group and Example 1-compound administration group on the final day of evaluation (Day 6 in Comparative Example 2 and Day 13 in Example 1) are shown in FIG. 1 and BWC versus elapsed days is shown in FIG. 2.

For data set [3] the test system is unchanged. Nature of the data set: Combination use of compound and radiation, cell viability (crystal violet). The settings on record: any order (same-day, compound first, radiation first), Student's t-test. Type of data set: cell-based. The method, then: A human brain tumor cell line (U-87 MG) was suspended in a medium, seeded in individual wells of a multi-well plate and cultured. In the case where radiation exposure and addition of a compound are simultaneously carried out, both treatments were carried out on two days after initiation of culture. In the case where addition of a compound preceded radiation exposure, a serially diluted solution of a compound was added on the day after initiation of culture and radiation exposure was carried out on two days after initiation of culture. In the case where radiation exposure preceded addition of a compound, radiation exposure was carried out on the day after initiation of culture and a serially diluted solution of a compound was added on the two days after initiation of culture. Day 5 after seeding, cells were fixed with a 25% aqueous solution of glutaraldehyde and stained with a staining fluid (0.05 w/v % crystal violet in 20% methanol). After an extract (0.1 N NaH2PO4: 100% ethanol=1:1) was added and stirred, an absorbance at 540 nm was measured to obtain a cell count. The cell viability was calculated in accordance with the following equation and statistically processed in accordance with a Student's t-test.
T: Absorbance of a well exposed to radiation or containing a compound
C: Absorbance of a well neither exposed to radiation nor containing a compound

Data set [4] shares this test system. Nature of the data set: Combinational effect of compound and temozolomide (TMZ), cell viability (crystal violet). To be noted: any order (same-day, compound first, TMZ first), Student's t-test. Format: cell-based. As for the experimental part:
A human brain tumor cell line (U-87 MG) was suspended in a medium, seeded in individual wells of a multi-well plate and cultured. In the case where two compounds are simultaneously added, both compounds were added on two days after initiation of culture. In the case where addition of the compound of the present invention preceded, a serially diluted solution of the compound was added on the day after initiation of culture and a serially diluted solution of TMZ was added two days after initiation of culture. In the case where addition of TMZ preceded, a serially diluted solution of TMZ was added on the day after initiation of culture and a serially diluted solution of the compound was added on two days after initiation of culture. Day 5 after seeding, cells were fixed with a 25% aqueous solution of glutaraldehyde and stained with a staining fluid (0.05 w/v % crystal violet in 20% methanol). After an extract (0.1 N NaH2PO4: 100% ethanol=1:1) was added and stirred, an absorbance at 540 nm was measured to obtain a cell count. The cell viability was calculated in accordance with the following equation and statistically processed in accordance with a Student's t-test.
T: Absorbance of a well containing TMZ or a compound
C: Absorbance of a well containing neither TMZ nor a compound

The term IC50 denotes the point on the concentration scale where inhibition reaches its midpoint. For the compound `Nc1ncnc2c1c(I)cn2[C@@H]1O[C@H](CO)[C@@H](O)[C@@H]1F` [Comparative Example 2, (2R,3R,4S,5R)-5-(4-amino-5-iodo-7H-pyrrolo[2,3-d]pyrimidin-7-yl)-4-fluoro-2-(hydroxymethyl) tetrahydrofuran-3-ol], in data set [1], the AUC(0-t) is 0.21 µM·h. For the same compound, the IC50 in the data set on A172 is 30 nM; with CCRFCEM, 40 nM; in the data set with CFPAC1 it was 50 nM; in the data set on DLD1, 40 nM; in the data set on H1703, 40 nM; with H69, 60 nM. Moreover, the IC50 with HCT116 is 90 nM; with HT29, 130 nM; with LN229 it was 20 nM; in the data set on MIAPACA2, 40 nM; in the data set with MKN45, 130 nM; with MOLT4, 10 nM. For the same compound, the results for the IC50 in the data set with MV-4-11, with A427 and in the data set with H520 were 4 nM, 98 nM and 29 nM, respectively. For the same compound, the “final day of evaluation (administration continued as long as weight loss was acceptable, until 20% or more)” value in data set [2] was 6 days. For the same compound, the “cell viability, combination treatment with radiation exposure compared to the single treatments” value in [3] is reported as “cell viability significantly decreased”. Besides, the “cell viability, combination treatment with TMZ compared to the single treatments” value in data set [4] was “significant decrease in cell viability”.
